Laboratory results taken from patent US6899723B2, “Transcutaneous photodynamic treatment of targeted cells” (Light Sciences Corporation, priority 2001, dated 2005).
Several values for one entry are separate records, joined by “and”; a condition that tells them apart may be missing. Equal values may be shown once.

Experiments:
epithelial cancer cells = assay: Low fluence PDT of nude mice injected with epithelial cancer cells preincubated with photosensitizer; format: in vivo; settings: for tumor growth: 660 nm light about 48 hours, 30 microwatts per cm^2, after 1.5 months
Method: (§1) A series of experiments were performed using nude mice growing transplanted human tumors. The mice are injected with various photosensitizers and the tumors illuminated with low fluence of only […] of light over a 72 hour time period. Extended tumor necrosis was observed.
(§2) Another two mice with established tumors were injected with 50-100 micrograms of Pheophorbide A into the lesion and exposed to 660 nm light (30 microwatts per cm^2) for 72 hours.
(§3) Two experimental mice were injected with epithelial cancer cells preincubated with 20 micrograms of Chlorin e6. […] Another two mice were injected with 100-150 micrograms of Chlorin e6 intratumorally and then exposed to 660 nm light (30 microwatts per cm^2) for 72 hours.

[1] = system: transplanted human tumors; assay: Low fluence PDT of established transplanted human tumors in nude mice; format: in vivo; settings: for tumor necrosis: 660 nm light 30 microwatts per cm^2 for 72 hours, after 7 days
Method: as §1, §2, §3
Five experimental mice bearing established tumors were injected with 1 mg Hpd intraperitoneally followed by exposure to 630 nm (peak) light ([…]) for 72 hours. […] There was no effect observed on control animals maintained in the absence of light (dark control mice).

normal skin tissue = settings: systemically administered, clinical use; cited from earlier work
[2] = system: colon carcinoma tumor mass; assay: Photodynamic therapy of a solid tumor in a patient with implanted LED light source probes; format: in vivo, human
Text: A patient in the terminal phase of recurrent malignant colon cancer having undergone chemotherapy and irradiation therapy, presented with a protruding colon carcinoma tumor mass of approximately 500 grams and approximately 13 cm in diameter, which extended through the patient's dermis. Due to the advanced state of the patient's disease and due to the highly vascularized nature of this tumor mass, resection was not feasible. Further, this large tumor mass presented a significant amount of pain and discomfort to the patient, as well as greatly impairing the patient's ability to lie flat.
Six separate light source probes, each including a linear array of LEDs, were surgically implanted in this large human tumor using standard surgical procedures. A single dose of a photosensitizer agent (aminolevulinic acid (ALA) at 60 mg/kg) was provided by oral administration to the patient. Following a period of five hours to permit sufficient clearance of the photosensitizing agent from healthy tissues, light irradiation was administered. An intensity of about 25-30 mW of light from each light source probe (650 nm peak wavelength) was delivered to the tumor for 40 hours. […] The total fluence delivered to the tumor bed during this single extended duration treatment was in excess of 20,000 Joules.
The fluence rate employed in this Example represented about 150-180 mW/cm^2, with a total fluence more than 20,000 Joules.

virus-infected T cells = settings: Blood Cells 18:129-40 (1992); cited from earlier work
[3] = cited from earlier work

Pheophorbide A
tumor growth (epithelial cancer cells; cells preincubated with 10 micrograms): no tumor growth
tumor growth, dark controls (epithelial cancer cells; cells preincubated with 10 micrograms, maintained in the absence of light): developed a large tumor
tumor necrosis ([1]; 50-100 micrograms into the lesion): Extensive tumor necrosis
effect on tumor, dark control animals ([1]; 50-100 micrograms into the lesion, no light): no effect

CCOC(=O)C1=Cc2c3nc(cc4nc(cc5[n-]c(cc6[n-]c2c(C)c6CC)c(C)c5CC)C(C)=C4CC)[C@@H](C)[C@]13CC.[Cl-].[Cl-].[Sn] (racemic) [PURLYTIN]
duration of dermal photosensitivity (normal skin tissue): at least several weeks

NCC(=O)CCC(=O)O [ALA, aminolevulinic acid]
reduction of tumor tissue (necrotic tissue debrided) ([2]; over four weeks following PDT): approximately 500 grams
radius of extensive tumor necrosis from each of the light source probes ([2]; patient, ALA 60 mg/kg oral, 650 nm light, after 40 hours of PDT, total fluence > 20,000 Joules): greater than 5 cm
collateral damage to surrounding normal tissue ([2]; patient, ALA 60 mg/kg oral, after 40 hours of PDT): no collateral damage

C=Cc1c(C)c2cc3nc(c(CC(=O)O)c4[nH]c(cc5nc(cc1[nH]2)C(C)=C5CC)c(C)c4C(=O)O)[C@@H](CCC(=O)O)[C@@H]3C [Chlorin e6]
tumor growth (epithelial cancer cells; cells preincubated with 20 micrograms): no tumor growth
tumor growth, dark control (epithelial cancer cells; cells preincubated with 20 micrograms, no light): developed a large tumor
tumor necrosis ([1]; 100-150 micrograms intratumorally): Extensive tumor necrosis

benzoporphyrin derivatives [BPD]
effect on T cell membrane after exposure to light (virus-infected T cells): holes developed in the T cell membrane and increased in size until the membrane completely decomposed

CC(=O)[O-].CC(=O)[O-].CCc1c(CC)c2cc3nc(cnc4cc(OCCOCCOCCOC)c(OCCOCCOCCOC)cc4ncc4nc(cc1[n-]2)C(CCCO)=C4C)C(C)=C3CCCO.O.[Lu+3] [Lutrin, lutetium texaphyrin]
time tumor tissues retain the agent ([3]; from time of administration): 48 to 96 h and 24 to 96 h
time at which a larger proportion clears from normal tissue ([3]; in vivo): about 8 hours
time at which a proportion begins to clear from normal tissue ([3]; in vivo): about 3 hours
time at which an even greater proportion clears from normal tissue ([3]; in vivo): about 16 hours

sodium porfimer [PHOTOPHRIN]
duration of dermal photosensitivity (normal skin tissue): up to six weeks

Oc1cccc(-c2c3nc(c(-c4cccc(O)c4)c4ccc([nH]4)c(-c4cccc(O)c4)c4nc(c(-c5cccc(O)c5)c5ccc2[nH]5)CC4)C=C3)c1 [FOSCAN]
duration of dermal photosensitivity (normal skin tissue): at least several weeks
